Reference: patent publication US10597388B2, “Pyridazinone herbicides” (FMC CORPORATION, priority 2014, dated 2020)

Columns and labels:
Format in all cases: in vivo
[1] = tested on: oilseed rape (Brassica napus); experiment: Test D controlled growth environment herbicide test, pre- and postemergence
In short: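 Pre-emergence: seeds sown in silt loam soil were sprayed with compound in a non-phytotoxic solvent mix containing surfactant. Post-emergence: plants at 2 to 18 cm (1- to 4-leaf stage) in peat moss/vermiculite medium got the same formulation. Visual 0–100 rating versus controls after 14 to 21 d.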

[2] = tested on: Italian ryegrass (Lolium multiflorum); experiment: Test E greenhouse herbicide test, pre- and postemergence
Text: (§1) Seeds of plant species selected from corn (Zea mays), soybean (Glycine max), velvetleaf (Abutilon theophrasti), lambsquarters (Chenopodium album), wild poinsettia (Euphorbia heterophylla), pigweed, palmer (palmer pigweed, Amaranthus palmeri), waterhemp (common waterhemp, Amaranthus rudis), surinam grass (Brachiaria decumbens), crabgrass, large (large crabgrass, Digitaria sanguinalis), crabgrass, Brazilian (Brazilian crabgrass, Digitaria horizontalis), panicum, fall (fall panicum, Panicum dichotomiflorum), foxtail, giant (giant foxtail, Setaria faberii), foxtail, green (green foxtail, Setaria viridis), goosegrass (Eleusine indica), johnsongrass (Sorghum halepense), ragweed (common ragweed, Ambrosia elatior), barnyardgrass (Echinochloa crus-galli), sandbur (southem sandbur, Cenchrus echinatus), arrowleaf sida (Sida rhombifolia), Italian ryegrass (Lolium multiflorum), dayflower (Virginia (VA) dayflower, Commelina virginica), field bindweed (Convolvulus arvensis), momingglory (Ipomoea coccinea), nightshade (eastern black nightshade, Solanum ptycanthum), kochia (Kochia scoparia), nutsedge, yellow (yellow nutsedge, Cyperus esculentus), horseweed (Conyza canadensis), and beggarticks (hairy beggarticks, Bidens pilosa), were planted into a silt loam soil and treated preemergence with test chemicals formulated in a non-phytotoxic solvent mixture which included a surfactant.
(§2) At the same time, plants from these crop and weed species and also waterhemp_RES1, (ALS & Triazine resistant common waterhemp, Amaranthus rudis), and waterhemp_RES2, (ALS & HPPD resistant common waterhemp, Amaranthus rudis) were planted in pots containing Redi-Earth® planting medium (Scotts Company, 14111 Scottslawn Road, Marysville, Ohio 43041) comprising spaghnum peat moss, vermiculite, wetting agent and starter nutrients were treated with postemergence applications of test chemicals formulated in the same manner. Plants ranged in height from 2 to 18 cm for postemergence treatments (1- to 4-leaf stage). Treated plants and controls were maintained in a greenhouse for 14 to 21 d, after which time all species were compared to controls and visually evaluated. Plant response ratings, summarized in Table E, are based on a scale of 0 to 100 where 0 is no effect and 100 is complete control. A dash (-) response means no test result.

[3] = tested on: beggarticks (hairy beggarticks, Bidens pilosa); experiment: as above
Text: as §1, §2

[4] = tested on: crabgrass, Brazilian (Brazilian crabgrass, Digitaria horizontalis); experiment: as above
Text: as §1, §2

[5] = tested on: field bindweed (Convolvulus arvensis); experiment: as above
Text: as §1, §2

kochia (Kochia scoparia) = experiment: as above
Text: as §1, §2

[6] = tested on: waterhemp (common waterhemp, Amaranthus rudis); experiment: as above
Text: as §1, §2

[7] = tested on: foxtail, green (green foxtail, Setaria viridis); experiment: as above; conditions: Preemergence
Text: as §1, §2

[8] = tested on: johnsongrass (Sorghum halepense); experiment: as above; conditions: Preemergence
Text: as §1, §2

[9] = tested on: nutsedge, yellow (yellow nutsedge, Cyperus esculentus); experiment: as above; conditions: Preemergence
Text: as §1, §2

[10] = Postemergence, 31 g ai/ha, scale 0 to 100 (0 no effect, 100 complete control)
[11] = Postemergence, 125 g ai/ha, visual rating on scale 0 (no effect) to 100 (complete control), 14 to 21 d
[12] = Postemergence, 250 g ai/ha, scale 0 to 100 (0 no effect, 100 complete control)
[13] = Preemergence, 125 g ai/ha, scale 0 to 100 (0 no effect, 100 complete control)
[14] = Preemergence, 250 g ai/ha, scale 0 to 100 (0 no effect, 100 complete control)
[15] = postemergence, 62 g ai/ha, scale 0 to 100, 0 no effect, 100 complete control
[16] = 62 g ai/ha, Postemergence, scale 0 to 100 (0 no effect, 100 complete control)
[17] = 125 g ai/ha, Postemergence, scale 0 to 100 (0 no effect, 100 complete control)
[18] = 250 g ai/ha, Postemergence, scale 0 to 100 (0 no effect, 100 complete control)
[19] = Postemergence, 31 g ai/ha, visual, scale 0 no effect to 100 complete control
[20] = 62 g ai/ha, Preemergence, scale 0 to 100 (0 no effect, 100 complete control)
[21] = 125 g ai/ha, Preemergence, scale 0 to 100 (0 no effect, 100 complete control)
[22] = Preemergence, 31 g ai/ha, scale 0 to 100, 0 no effect, 100 complete control
[23] = Preemergence, 250 g ai/ha, visual, scale 0 no effect to 100 complete control
[24] = Preemergence, 125 g ai/ha, visual, scale 0 no effect to 100 complete control
[25] = 62 g ai/ha, scale 0 to 100 (0 no effect, 100 complete control)
[26] = 31 g ai/ha, scale 0 to 100, 0 no effect, 100 complete control
[27] = 125 g ai/ha, visual, scale 0 no effect to 100 complete control
[28] = 250 g ai/ha, visual, scale 0 no effect to 100 complete control
[29] = Postemergence, 16 g ai/ha, visual, scale 0 no effect to 100 complete control

CCC(=O)Oc1c(C)nn(C)c(=O)c1-c1c(C)sc2ccc(C)cc12 [Compound 42]
Oilseed Rape plant response rating [1, 10]: 10
Plant response rating, Oilseed Rape [1, 11]: 60
Plant response rating, Oilseed Rape [1, 12]: 70
Plant response rating (scale of 0 to 100), Oilseed Rape ([1]; Preemergence, 31 g ai/ha): 0
Plant response rating, Oilseed Rape ([1]; Preemergence, 62 g ai/ha, scale 0 to 100 (0 no effect, 100 complete control)): 0
Plant response rating, Oilseed Rape [1, 13]: 0
Plant response rating, Oilseed Rape [1, 14]: 0
Plant response rating, Oilseed Rape [1, 15]: 50
Plant response rating, Ryegrass, Italian [2, 16]: 70
Plant response rating, Ryegrass, Italian [2, 17]: 85
Plant response rating, Ryegrass, Italian [2, 18]: 90
Plant response rating, Ryegrass, Italian [2, 19]: 50
Plant response rating, Beggarticks [3, 16]: 95
Plant response rating, Beggarticks [3, 17]: 100
Plant response rating, Beggarticks [3, 18]: 100
Plant response rating, Beggarticks [3, 19]: 95
Plant response rating, Crabgrass, Brazil [4, 16]: 35
Plant response rating, Crabgrass, Brazil [4, 17]: 40
Plant response rating, Crabgrass, Brazil [4, 18]: 50
Plant response rating, Crabgrass, Brazil [4, 19]: 20
Plant response rating, Field Bindweed [5, 16]: 85
Plant response rating, Field Bindweed [5, 17]: 90
Plant response rating, Field Bindweed [5, 18]: 90
Plant response rating, Field Bindweed [5, 19]: 90
Plant response rating, Kochia (kochia (Kochia scoparia); [16]): 85
Plant response rating, Kochia (kochia (Kochia scoparia); [17]): 95
Plant response rating, Kochia (kochia (Kochia scoparia); [18]): 98
Plant response rating, Kochia (kochia (Kochia scoparia); [19]): 75
Plant response rating, Waterhemp [6, 16]: 80
Plant response rating, Waterhemp [6, 17]: 100
Plant response rating, Waterhemp [6, 18]: 90
Plant response rating, Waterhemp [6, 19]: 75

CCOC(=O)Oc1c(C)nn(C)c(=O)c1-c1c(CC)ccc2ccccc12 [Compound 37]
Plant response rating, Ryegrass, Italian [2, 20]: 95
Plant response rating, Ryegrass, Italian [2, 21]: 100
Plant response rating, Ryegrass, Italian [2, 22]: 85
Plant response rating, Ryegrass, Italian [2, 23]: 100
Plant response rating, Beggarticks [3, 20]: 98
Plant response rating, Beggarticks [3, 22]: 80
Plant response rating, Beggarticks [3, 24]: 98
Plant response rating, Beggarticks [3, 23]: 100
Plant response rating, Crabgrass, Brazil [4, 20]: 85
Plant response rating, Crabgrass, Brazil [4, 22]: 70
Plant response rating, Crabgrass, Brazil [4, 24]: 90
Plant response rating, Crabgrass, Brazil [4, 23]: 95
Plant response rating, Field Bindweed [5, 20]: 90
Plant response rating, Field Bindweed [5, 22]: 75
Plant response rating, Field Bindweed [5, 24]: 85
Plant response rating, Field Bindweed [5, 23]: 100
Plant response rating, Foxtail, Green [7, 25]: 60
Plant response rating, Foxtail, Green [7, 26]: 0
Plant response rating, Foxtail, Green [7, 27]: 65
Plant response rating, Foxtail, Green [7, 28]: 80
Plant response rating, Johnsongrass [8, 25]: 0
Plant response rating, Johnsongrass [8, 26]: 0
Plant response rating, Johnsongrass [8, 27]: 100
Plant response rating, Johnsongrass [8, 28]: 100
Plant response rating, Kochia (kochia (Kochia scoparia); [20]): 0
Plant response rating, Kochia (kochia (Kochia scoparia); [22]): 0
Plant response rating, Kochia (kochia (Kochia scoparia); [24]): 0
Plant response rating, Kochia (kochia (Kochia scoparia); [23]): 65
Plant response rating, Nutsedge, Yellow [9, 25]: 0
Plant response rating, Nutsedge, Yellow ([9]; 125 g ai/ha, scale 0 to 100 (0 no effect, 100 complete control)): 65
Plant response rating, Nutsedge, Yellow [9, 26]: 0
Plant response rating, Nutsedge, Yellow [9, 28]: 70
Plant response rating, Waterhemp [6, 20]: 75
Plant response rating, Waterhemp [6, 21]: 98
Plant response rating, Waterhemp [6, 22]: 0
Plant response rating, Waterhemp [6, 23]: 100

CC(=O)Oc1c(C)nn(C)c(=O)c1-c1ccc(F)c2ccccc12 [Compound 90]
Oilseed Rape plant response rating [1, 10]: 0
Plant response rating, Oilseed Rape [1, 11]: 15
Plant response rating, Oilseed Rape [1, 12]: 70
Plant response rating (scale of 0 to 100), Oilseed Rape ([1]; Preemergence, 31 g ai/ha): 0
Plant response rating (scale of 0 to 100), Oilseed Rape ([1]; Preemergence, 62 g ai/ha): 0
Plant response rating, Oilseed Rape [1, 13]: 0
Plant response rating, Oilseed Rape [1, 14]: 0
Plant response rating, Oilseed Rape [1, 15]: 5
Plant response rating, Ryegrass, Italian [2, 16]: 85
Plant response rating, Ryegrass, Italian [2, 17]: 85
Plant response rating, Ryegrass, Italian [2, 29]: 75
Plant response rating, Ryegrass, Italian [2, 19]: 80
Plant response rating, Beggarticks [3, 16]: 98
Plant response rating, Beggarticks [3, 17]: 100
Plant response rating, Beggarticks [3, 29]: 85
Plant response rating, Beggarticks [3, 19]: 90
Plant response rating, Crabgrass, Brazil [4, 16]: 50
Plant response rating, Crabgrass, Brazil [4, 17]: 70
Plant response rating, Crabgrass, Brazil [4, 29]: 50
Plant response rating, Crabgrass, Brazil [4, 19]: 55
Plant response rating, Field Bindweed [5, 16]: 90
Plant response rating, Field Bindweed [5, 17]: 100
Plant response rating, Field Bindweed [5, 29]: 60
Plant response rating, Field Bindweed [5, 19]: 80
Plant response rating, Kochia (kochia (Kochia scoparia); [16]): 95
Plant response rating, Kochia (kochia (Kochia scoparia); [17]): 100
Plant response rating, Kochia (kochia (Kochia scoparia); [29]): 90
Plant response rating, Kochia (kochia (Kochia scoparia); [19]): 90
Plant response rating, Waterhemp [6, 17]: 90
Plant response rating, Waterhemp [6, 29]: 50
Plant response rating, Waterhemp [6, 19]: 70
